Columns and labels:
[1] = test system: Caco-2 monolayer; experiment: Caco-2 monolayer permeability screen
Method: Supplementary Table 3: Caco-2 permeability and BBB-PAMPA permeability
For CaCo-2 permeability assay, cells were incubated with 10 µM of these reagents in
buffers for 2 h, and the receiver side buffer is removed for analysis by LC/MS/MS. Efflux […]
(§1) LLOQ: Lower Limit of Quantification; Papp: apparent permeability.

[2] = Liver microsomal stability, human; details: Human microsomes, 30 min, 37 °C
Method: Supplementary Table 4: Liver microsomal stability
Compound Species Mean Remaining Parent Mean Remaining Parent
(with NADPH) (NADPH-free)
The test agents were incubated in duplicate with microsomes at 37 °C for 30 min. The reaction contained microsomal protein in 100 mM potassium phosphate, 2 mM NADPH, 3 mM MgCl2, pH 7.4. A control was run for each test agent omitting NADPH to detect NADPH-free degradation. Data are reported as % remaining of parent compound. ND, Peak not detected due to bioanalysis issue (poor ionization).

[3] = BBB-PAMPA permeability assay; assay type: in vitro ADME; details: for Papp at 18 h: PAMPA, read-out: effective permeability Pe; for Papp at 18 h / effective permeability Pe: porcine brain lipid, 18 h
Method: Supplementary Table 3: Caco-2 permeability and BBB-PAMPA permeability […]
For CaCo-2 permeability assay, cells were incubated with 10 µM of these reagents in buffers for 2 h, and the receiver side buffer is removed for analysis by LC/MS/MS. Efflux […]
For BBB-PAMPA permeability assay, the filter membrane was coated with 4 µl of a 20 mg ml-1 porcine brain lipid in dodecane. 200 µl of the compound solution was added to the donor well. The acceptor well was filled with 200 µl of transport buffer. The acceptor filter plate was carefully placed on to the donor plate to create […]
a sandwich. […] Samples of the donor and acceptor wells were analyzed by LC/MS/MS and the effective permeability (Pe) was calculated.
as §1

[4] = target: T1, caspase-8 (Homo sapiens, UniProt Q14790); experiment: IC50 assay with recombinant caspase-8; assay type: biochemical; details: for IC50: mean±s.d.
T1 construct: purchased Millipore (Billerica, MA)
Method: (§2) Caspase-3 and 8 – The enzyme was pre-incubated with inhibitor in assay buffer (100 mM HEPES pH 7.4, 0.1% CHAPS, 10% Sucrose) for 10 min at 37 °C.
(§3) To determine the IC50 values of the compounds towards δ-secretase, cathepsin-S, cathepsin-L, caspase-3 and caspase-8, purified recombinant enzyme was incubated in appropriate assay buffers in the presence of increasing concentrations of inhibitors. The formation of fluorescent product was monitored in duplicate reactions and the data were fit to appropriate equations to calculate the IC50 values.

[5] = target: T2, caspase-3 (Homo sapiens, UniProt P42574); experiment: IC50 assay with recombinant caspase-3; assay type: biochemical; details: mean±s.d.
T2 construct: purchased Millipore (Billerica, MA)
T2 sequence (P42574 29-175 limits assumed): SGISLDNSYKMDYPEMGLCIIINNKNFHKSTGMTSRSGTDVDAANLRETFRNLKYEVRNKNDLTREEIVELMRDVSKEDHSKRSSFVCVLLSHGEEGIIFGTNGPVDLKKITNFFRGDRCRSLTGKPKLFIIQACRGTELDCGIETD
T2 sequence (P42574 176-277 limits assumed): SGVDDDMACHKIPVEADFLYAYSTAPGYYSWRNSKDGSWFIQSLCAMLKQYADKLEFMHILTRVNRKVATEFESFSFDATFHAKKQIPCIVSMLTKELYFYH
Method: as §2, §3

[6] = test system: 5XFAD mice
Method: Only 2-month-old male mice were used in the present study. Sample size was determined by Power and Precision (Biostat). The animals were randomly allocated to experimental groups. Investigators were blinded to the group allocation during the animal experiments. […] The protocol was reviewed and approved by the Emory Institutional Animal Care and Use Committee. Rabbit anti-tau N368 (1:1,000), and anti-APP585N (1:500) antibody, which specifically recognize the δ-secretase-derived tau and APP fragments respectively, were described previously. […] TUNEL in situ cell death detection kit was from Roche (Indianapolis, IN). […] All chemicals not included above were purchased from Sigma-Aldrich (St. Louis, MO). Recombinant δ-secretase was obtained from Sino Biological (Beijing, China), recombinant cathepsin-S was obtained from Athens Research and Technology (Athens, GA), recombinant caspase-3 and caspase-8 were obtained from Millipore (Billerica, MA).
The mice were trained in a round, water-filled tub (52′ diameter) in an environment rich with extra maze cues. An invisible escape platform was located in a fixed spatial location 1 cm below the water surface independent of a subject's start position on a particular trial. In this manner, subjects needed to utilize extra maze cues to determine the platform's location. At the beginning of each trial, the mouse was placed in the water maze with their paws touching the wall from 1 of 4 different starting positions (N, S, E, W). […] On reaching the invisible escape platform, subjects were left on it for an additional 5 s to allow for survey of the spatial cues in the environment to guide future navigation to the platform. After each trial, subjects were dried and kept in a dry plastic holding cage filled with paper towels to allow the subjects to dry off. The temperature of the water was monitored every hour so that mice were tested in water that was between 22 and 25 °C. Following the 5 days of task acquisition, a probe trial was presented during which the platform was removed. The percentage of time that was spent in the quadrant, which previously contained the escape platform during task acquisition, was measured over 60 s. All trials were analysed for latency, swim path length and swim speed by means of MazeScan (Clever Sys, Inc.).
After rinsed in distilled water, the sections were transferred to blocking solution (1% sodium hydroxide and 0.9% hydrogen peroxide) for 20 min. […] The sections were washed with 50% ethanol and placed in distilled water. Then the sections were covered with glass cover using mounting solution.
To detect the Aβ deposition in 5XFAD mice, the mice brains were homogenized in 8 × mass of 5 M guanidine HCl/50 mM Tris–HCl (pH 8.0), and incubated at room temperature for 3 h. Then the samples were diluted with cold reaction buffer (phosphate buffered saline with 5% BSA and 0.03% Tween 20, supplemented with protease inhibitor cocktail) and centrifuged at 16,000g for 20 min at 4 °C. The supernatant were analysed by human Aβ42 and Aβ40 ELISA kit according to the manufacturer's instructions (KHB3441 and KHB3481, Invitrogen). The Aβ42 and Aβ40 concentrations were determined by comparison with the standard curve. The concentrations of IL-1β and TNFα in the mice brain were detected using mouse IL-1β and TNFα ELISA kit from eBioscience according to the manufacture's instructions.

[7] = target: CYP2D6 (Homo sapiens, UniProt P10635); experiment: CYP inhibition screening in microsomes; details: pH 7.4
CYP2D6, sequence (P10635 whole entry): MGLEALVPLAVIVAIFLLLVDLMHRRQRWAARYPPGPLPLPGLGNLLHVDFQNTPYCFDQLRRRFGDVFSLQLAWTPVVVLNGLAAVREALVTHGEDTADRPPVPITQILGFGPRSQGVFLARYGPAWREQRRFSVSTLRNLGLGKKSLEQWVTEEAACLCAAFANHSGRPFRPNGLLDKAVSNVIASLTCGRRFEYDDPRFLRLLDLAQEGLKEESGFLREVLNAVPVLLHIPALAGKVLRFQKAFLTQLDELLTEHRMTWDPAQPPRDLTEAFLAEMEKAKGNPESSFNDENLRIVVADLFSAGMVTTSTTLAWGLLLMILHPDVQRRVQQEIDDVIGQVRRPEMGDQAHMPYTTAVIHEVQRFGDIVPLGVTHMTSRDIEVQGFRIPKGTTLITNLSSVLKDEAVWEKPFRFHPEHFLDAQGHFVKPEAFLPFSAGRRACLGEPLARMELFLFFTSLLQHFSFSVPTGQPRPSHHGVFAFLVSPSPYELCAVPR

T1 sequence (Q14790 217-374 limits assumed, species assumed): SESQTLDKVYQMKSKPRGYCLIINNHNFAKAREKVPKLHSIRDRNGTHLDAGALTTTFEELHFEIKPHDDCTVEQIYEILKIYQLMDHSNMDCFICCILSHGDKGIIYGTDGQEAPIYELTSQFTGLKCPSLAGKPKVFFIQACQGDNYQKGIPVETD
T1 sequence (Q14790 385-479 limits assumed, species assumed): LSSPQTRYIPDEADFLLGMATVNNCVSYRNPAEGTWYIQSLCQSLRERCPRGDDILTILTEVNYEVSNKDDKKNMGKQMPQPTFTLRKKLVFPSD

Row | Compound | Caco-2 permeability in words [1] | Mean Remaining Parent (NADPH-free) [2] [%] | Mean Remaining Parent (with NADPH) [2] [%] | BBB-PAMPA permeability / BBB penetration in words [3] | Papp at 18 h [3] [×10⁻⁶ cm/s] | IC50 [4] [µM] | IC50 [5] [µM] | inhibition at 10 min, 3 µM [7] [%] | inhibition at 10 min, 10 µM [7] [%] | effective permeability Pe [3] | also measured
1 | Nc1ccc(N2CCOCC2)c2nonc12 [compound 11, 7-(morpholin-4-yl)-2,1,3-benzoxadiazol-4-amine] | highly permeable | 93 | 76 | detected at high-levels | > 25 | 86.7 ± 10.3 | 31.9 ± 1.94 | 7.8 | 21.9 |  | Aβ deposition, time and dose dependence ([6]; 2, 5 or 10 mg kg−1 d−1 for 1.5 and 3 months): attenuated Aβ deposition in a time- and dose-dependent manner; concentrations of IL-1β and TNFα ([6]; 5XFAD mice): reduced the concentrations of inflammatory cytokines IL-1β and TNFα; activity of δ-secretase in mice brain ([6]; 5XFAD, oral once daily, 3 months): significantly inhibited; concentrations of Aβ 1–40 and Aβ 1–42 in brain lysates ([6]; ELISA): significantly decreased; cleavage of APP by δ-secretase at N373 and N585 ([6]; Western blot): decreased the cleavage of APP; Morris water maze distance to platform ([6]; acquisition): decreased distance to platform; LTP deficits ([6]; mouse, in vivo): significantly reversed the LTP deficits; density of spines (Golgi stain) ([6]; mouse, in vivo): increased the density of spines; expression of C83 ([6]; mouse, in vivo): not altered; expression of C99 ([6]; mouse, in vivo): decreased; plaque deposition in hippocampus and frontal cortex (Thioflavin S) ([6]; mouse, in vivo): attenuated; probe test, time in target quadrant ([6]; mouse, in vivo): spent more time in the target quadrant; swim speed ([6]; mouse, in vivo): not affected
2 | Cc1cccc(NCc2ccc(O)c3ncccc23)c1C [compound 12] |  | 1 | 1 |  |  | > 200 | > 200 | 2.9 | -2.6 | < LLOQ | 
3 | COc1ccc(N2CCN(C(c3ccc(N(C)C)cc3)c3nnnn3C(C)(C)C)CC2)cc1 (centres unmarked) [compound 31] | highly permeable | 75 | 12 | barely penetrate the BBB |  | > 100 | > 100 | 9.9 | 1.4 | < LLOQ | 
4 | Cn1c(=O)[nH]c(=O)c2c1nc(S)n2CC(O)COc1ccc(Cl)cc1 (centres unmarked) [compound 38] |  | 107 | 88 | barely penetrate the BBB | 0.007 | 76.1 ± 8.12 | 29.7 ± 4.68 | -5.4 | 0.9 |  | selectivity for δ-secretase compared to caspase-8 [4]: at least 80 fold
